According to US20240287025A1, “TETRAHYDROQUINOLINE (THQ) COUMPOUNDS” (Centre National de la Recherche Scientifique, priority 2021, published 2024):

How the values were obtained:
[1] = target: Brd4 BD1 (Homo sapiens (Human), UniProt O60885); test: HTRF evaluation of bromodomain inhibitors, Brd4 BD1; format: binding; conditions: H4ac4 peptide 50 nM, 4 h at 4° C.
Procedure: (§1) HTRF reagents and buffers were purchased from Cisbio Bioassays. The assay used a terbium (Ill) cryptate donor reagent conjugated to an anti-GST antibody (MAb anti-GST-Tb; GSTTLA), a streptavidin-conjugated acceptor reagent (streptavidin-d2) and Cisbio proprietary buffers (EPlgeneous Binding Domain Diluent and Detection buffer, respectively). GST-tagged bromodomains (BDs) were expressed in E. coli and purified using standard procedures. Incubation of GST-tagged BDs with biotinylated acetylated H4 peptide (H4K5acK8acK12acK16ac, here named H4ac4) brings the donor and acceptor into close proximity and allows for a FRET reaction. GST-tagged proteins in 25 mM Hepes pH 7.5, 150 mM NaCl, 0.5 mM DTT were assayed at a final concentration of 5 nM. Biotinylated H4ac4 peptides were used at a final concentration of 50, 600 nM in assays involving Brd4 BD1, Brd4 BD2, respectively. The antibody-conjugated donor was used at 0.5 nM and the streptavidin-conjugated acceptor was used at ⅛ of the H4ac4 peptide concentration. Inhibitors were tested by performing an eleven-point dilution series with a maximal final concentration of […]. These concentrations allowed a fixed DMSO concentration at 0.2%, critical for a Z′ factor ≥0.8. Components were incubated at 4° C. for 4 h (BD1) or for 24 h (BD2). Experiments were performed in 384-well white plates (Greiner ref. 781080) and analyzed in a ClarioStar plate reader (BMG LABTECH, excitation at 330 nm and emission at 620 and 665 nm, corresponding to the donor and acceptor emission peaks, respectively; the 665/620 ratio is used to calculate the specific HTRF signal) with an integration delay of 60 μs and an integration time of 400 μs.

[2] = test system: J774 mouse macrophages; test: Cytotoxicity and anti-inflammatory activity (IL-6/TNFα, AI score) after iBET/LPS treatment; format: cell-based; conditions: AI score versus cytotoxicity, FIG. 7
Procedure: J774 mouse macrophages were cultured in DMEM 10% Fetal Calf Serum (FCS) 1% penicillin and streptomycin at 37° C. 5% CO2. […]. Cells were then seeded at 250,000 cells/ml and treated with 1 μM, 10 μM and 100 μM for each iBET and, then, after 30 min, with 100 μg/ml LPS (lipopolysaccharides, Cell Signaling Technology ref: 14011S) to induce inflammatory response. After 24 h, cytotoxicity was evaluated using CytoTox-ONE™ Homogeneous Membrane Integrity Assay and/or CellTiter 96 Non-radioactive Cell Proliferation Assay (Promega) according to manufacturer's instructions. IL6 and TNFα secretion were assessed using respectively IL-6 Mouse ELISA assay and TNFα Mouse ELISA assay (Invitrogen) according to manufacturer's instructions.
Experimental procedure: J774 mouse macrophages were cultured in DMEM 10% Fetal Calf Serum (FCS) 1% penicillin and streptomycin at 37° C. 5% CO2. […] After 24 h, cytotoxicity was evaluated using the Cell Proliferation Kit I (Roche) according to manufacturer's instructions. IC50 were calculated using GraphPad (Prism) using non linear regression curve fit. IL6 and TNF[…] secretion was assessed using respectively IL-6 Mouse and TNFα Mouse ELISA assay (Invitrogen) on cell culture supernatants according to manufacturer's instructions. […]

[3] = target: Brd4 BD2 (Homo sapiens (Human), UniProt O60885); test: HTRF evaluation of bromodomain inhibitors, Brd4 BD2; format: binding; conditions: for IC50: HTRF, H4ac4 peptide 600 nM, 24 h at 4° C.; for Selectivity BD2/BD1: ratio of the BD1 and BD2 IC50
Procedure: as §1

[4] = test system: LPS-stimulated J774 mouse macrophages cells; test: RNA sequencing, gene expression profiles of LPS-stimulated cells; format: cell-based; conditions: 10 μM, 6 h, RNAseq
Procedure: Experimental procedure: RNA was extracted from 5 million of LPS-stimulated J774 mouse macrophages cells treated for 6 h with DMSO (negative control), reference iBETs (JQ1 and iBET726, 1 μM) and lead compounds (MLE83 and JUP102, 10 μM) using Trizol (Invitrogen) according to manufacturer's instructions. RNA sequencing was subcontracted to BGI Genomics ([…] Sequencing Technology). FASTQ sequencing files were aligned to mouse genome (GRCm39 assembly) using STAR (v2.7.1a). Bam files were counted using HTSeq framework (v0.11.2). Reads normalization and differential analysis was performed suing SARTools and DESeq2 (v1.22.2) R packages. Genes were considered as differentially expressed when |log 2FC|>1 AND p value <0.05 between control and treated conditions. Gene Set Enrichment Analysis was performed using GSEA v4.2.1 software against the hallmark v7.5 gene sets from the Broad Institute Molecular Signature Database. A detailed description of GSEA methodology and interpretation is provided online (http://www.broadinstitute.org/gsea/doc/GSEAUserGui-deFrame.html).

C=CCCCC(=O)Nc1ccc(-c2ccc3c(c2)[C@@H](n2cc(-c4ccccc4)nn2)[C@H](C)[C@H](CC)N3C(C)=O)cc1 [XD, N-(4-((2S,3R,4S)-1-acetyl-2-ethyl-3-methyl-4-(4-phenyl-1H-1,2,3-triazol-1-yl)-1,2,3,4-tetrahydroquinolin-6-yl)phenyl)hex-5-enamide]
IC50 [1]: 562 nM
inflammatory activity/toxicity ratio [2]: best inflammatory activity/toxicity ratio
IC50 [3]: 620 nM
Selectivity BD2/BD1 [3]: 1.1
GSEA analysis, iBET-associated cellular responses [4]: reduces inflammatory response and MYC signaling
number of genes impacted, times fewer than JUP102 [4]: ~10 times

C#CCOCCOCCOCc1cn([C@@H]2c3cc(C(=O)OC)ccc3N(C(C)=O)[C@@H](CC)[C@H]2C)nn1 [XQ]
IC50 [1]: 16600 nM
inflammatory activity/toxicity ratio [2]: best inflammatory activity/toxicity ratio
IC50 [3]: 1490 nM
Selectivity BD2/BD1 [3]: 11.2
GSEA analysis, iBET-associated cellular responses [4]: reduces inflammatory response and MYC signaling

CC[C@H]1[C@@H](C)[C@H](n2cc(COCCOCCOCCOCC#Cc3cccc4c3CN(C3CCC(=O)NC3=O)C4=O)nn2)c2cc(C(=O)OC)ccc2N1C(C)=O (stereo partly drawn) [YF, Methyl-(2S,3R,4S)-1-acetyl-4-(4-(14-(2-(2,6-dioxopiperidin-3-yl)-1-oxoisoindolin-4-yl)-2,5,8,11-tetraoxatetradec-13-yn-1-yl)-1H-1,2,3-triazol-1-yl)-2-ethyl-3-methyl-1,2,3,4-tetrahydroquinoline-6-carboxylate]
IC50 [1]: 17000 nM
IC50 [3]: 1330 nM
Selectivity BD2/BD1 [3]: 12.7

CC[C@H]1[C@@H](C)[C@H](n2cc(COCCOCCOCCOCCOCCOCC#Cc3cccc4c3CN(C3CCC(=O)NC3=O)C4=O)nn2)c2cc(C(=O)OC)ccc2N1C(C)=O (stereo partly drawn) [YG, Methyl-(2S,3R,4S)-1-acetyl-4-(4-(20-(2-(2,6-dioxopiperidin-3-yl)-1-oxoisoindolin-4-yl)-2,5,8,11,14,17-hexaoxaicos-19-yn-1-yl)-1H-1,2,3-triazol-1-yl)-2-ethyl-3-methyl-1,2,3,4-tetrahydroquinoline-6-carboxylate]
IC50 [1]: > 20000 nM
IC50 [3]: 1360 nM

CC[C@H]1[C@@H](C)[C@H](n2nnc3c2CCC2C(CO)C2CC3)c2cc(C(=O)OC)ccc2N1C(C)=O (stereo partly drawn) [YI, Methyl-(2S,3R,4S)-1-acetyl-2-ethyl-4-(6-(hydroxymethyl)-5,5a,6,6a,7,8-hexahydrocyclopropa[5,6]cycloocta[1,2-d][1,2,3]triazol-1(4H)-yl)-3-methyl-1,2,3,4-tetrahydroquinoline-6-carboxylate]
IC50 [1]: 33600 nM
IC50 [3]: 798 nM
Selectivity BD2/BD1 [3]: 42.1

C=CCCCC(=O)Nc1ccc(-c2ccc3c(c2)[C@H](N=[N+]=[N-])[C@@H](C)[C@@H](CC)N3C(C)=O)cc1 [ent-XC]
IC50 [1]: 22400 nM
IC50 [3]: 4430 nM
Selectivity BD2/BD1 [3]: 5.1

C=CCCCC(=O)Nc1ccc(-c2ccc3c(c2)[C@H](n2cc(-c4ccccc4)nn2)[C@@H](C)[C@@H](CC)N3C(C)=O)cc1 [ent-XD]
IC50 [1]: 2300 nM
IC50 [3]: 677 nM
Selectivity BD2/BD1 [3]: 3.4

C=CCCCC(=O)Nc1ccc(-c2ccc3c(c2)[C@H](n2cc(CCCCC)nn2)[C@@H](C)[C@@H](CC)N3C(C)=O)cc1 [ent-XE]
IC50 [1]: > 100000 nM
IC50 [3]: > 100000 nM

CCCCCc1cn([C@H]2c3cc(C(=O)OC)ccc3N(C(C)=O)[C@H](CC)[C@@H]2C)nn1 [ent-XF]
IC50 [1]: 6300 nM
IC50 [3]: 8330 nM
Selectivity BD2/BD1 [3]: 0.8

C=CCCCC(=O)Nc1ccc(-c2ccc3c(c2)[C@H](NC(=O)OC(C)C)[C@@H](C)[C@@H](CC)N3C(C)=O)cc1 [ent-XI]
IC50 [1]: 5740 nM
IC50 [3]: 2940 nM
Selectivity BD2/BD1 [3]: 2.0

CC[C@@H]1[C@H](C)[C@@H](NC(=O)OC(C)C)c2cc(C(=O)OC)ccc2N1C(C)=O [ent-XJ]
IC50 [1]: > 100000 nM
IC50 [3]: 17700 nM

C=CCCCC(=O)Nc1ccc(-c2ccc3c(c2)[C@H](Nc2ncc(Cl)cn2)[C@@H](C)[C@@H](CC)N3C(C)=O)cc1 [ent-XK]
IC50 [1]: 6090 nM
IC50 [3]: 2020 nM
Selectivity BD2/BD1 [3]: 3.0

CC[C@@H]1[C@H](C)[C@@H](Nc2ncc(Cl)cn2)c2cc(C(=O)OC)ccc2N1C(C)=O [ent-XL]
IC50 [1]: > 100000 nM
IC50 [3]: 7440 nM
